pIC50: −log10 of the molar value. Active and inactive are the calls of the source.
How the values were obtained:
[1] = target: T1, Polyadenylate-binding protein 1 (Homo sapiens, UniProt P11940); test: PABP1 MLLE–PAM2 binding inhibitor potency, dose response, biochemical, fluorescence polarization, FITC-PAM2 peptide (AID 602259); format: functional; details: read-out: IC50_Mean
Beta-galactosidase [2] = target: T2, Beta-galactosidase (Escherichia coli, UniProt Q8VNN2); test: beta-galactosidase enzyme inhibitors and activators, dose response, artefact control for CCR6 antagonist project, biochemical, E. coli enzyme, set 3 (AID 504712); format: functional
[3] = target: T3, Kappa-type opioid receptor (Homo sapiens, UniProt P41145); format: functional
[4] = target: T1, Polyadenylate-binding protein 1; test: PABP1 MLLE–PAM2 interaction inhibitors, dose response, miRNA deadenylation inhibitor project, biochemical, fluorescence polarization, Cy5-PAM2 peptide, secondary (AID 602260); format: functional; details: read-out: IC50_Mean
[5] = target: T3, Kappa-type opioid receptor; format: functional; remark: listed apart in the source
[6] = target: T4, C-C chemokine receptor type 6 (Homo sapiens, UniProt P51684); test: CCR6 receptor antagonists, dose response, cell-based, luminescent beta-arrestin readout (AID 504728); format: functional
T4 sequence (P51684 whole entry): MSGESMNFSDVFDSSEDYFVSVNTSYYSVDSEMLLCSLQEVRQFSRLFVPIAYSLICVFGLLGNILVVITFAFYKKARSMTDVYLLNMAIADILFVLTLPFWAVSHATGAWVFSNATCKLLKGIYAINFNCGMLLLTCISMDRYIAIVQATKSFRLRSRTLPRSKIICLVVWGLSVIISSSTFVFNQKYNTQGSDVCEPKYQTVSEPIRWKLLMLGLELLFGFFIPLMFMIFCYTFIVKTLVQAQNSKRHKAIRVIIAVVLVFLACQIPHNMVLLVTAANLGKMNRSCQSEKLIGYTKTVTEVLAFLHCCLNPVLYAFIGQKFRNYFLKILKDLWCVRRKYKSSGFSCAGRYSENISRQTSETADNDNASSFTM

Beta-galactosidase [7] = target: T2, Beta-galactosidase; format: functional
Trypsin = Trypsin (Sus scrofa, UniProt P00761); test: porcine trypsin inhibitors, dose response, selectivity assay for Rce1 protease inhibitor project, biochemical, quenched peptide fluorescence, cherry-pick (AID 488789)
[8] = target: T5, DNA repair and recombination protein RAD54-like (Homo sapiens, UniProt Q92698); test: inhibitors of human RAD54 branch migration, confirmation, biochemical, fluorescence, cherry-picked samples, dose series (AID 651657); format: functional
T5 sequence (Q92698 whole entry): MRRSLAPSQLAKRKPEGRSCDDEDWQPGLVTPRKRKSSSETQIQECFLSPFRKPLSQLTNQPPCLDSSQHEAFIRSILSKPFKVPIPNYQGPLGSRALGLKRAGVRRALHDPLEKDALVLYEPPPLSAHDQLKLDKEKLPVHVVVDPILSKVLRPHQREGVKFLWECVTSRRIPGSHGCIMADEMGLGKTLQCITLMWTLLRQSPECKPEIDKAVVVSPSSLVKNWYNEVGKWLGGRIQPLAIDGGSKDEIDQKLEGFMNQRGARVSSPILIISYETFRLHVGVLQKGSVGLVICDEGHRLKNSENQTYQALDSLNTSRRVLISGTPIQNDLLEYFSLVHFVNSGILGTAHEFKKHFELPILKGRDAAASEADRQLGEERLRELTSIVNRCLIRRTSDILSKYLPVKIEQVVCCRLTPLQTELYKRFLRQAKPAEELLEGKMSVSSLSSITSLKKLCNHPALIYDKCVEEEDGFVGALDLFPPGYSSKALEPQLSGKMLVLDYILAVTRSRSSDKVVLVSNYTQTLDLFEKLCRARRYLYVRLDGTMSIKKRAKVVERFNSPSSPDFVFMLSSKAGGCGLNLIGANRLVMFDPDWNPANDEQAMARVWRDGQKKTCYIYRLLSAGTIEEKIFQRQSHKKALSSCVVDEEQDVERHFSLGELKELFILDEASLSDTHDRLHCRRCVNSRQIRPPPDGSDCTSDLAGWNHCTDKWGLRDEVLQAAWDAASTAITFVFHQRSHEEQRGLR

[9] = target: T6, Type-1 angiotensin II receptor (Homo sapiens, UniProt P30556); test: AT1 receptor agonists, dose response, selectivity assay for APJ receptor agonist project, cell-based, uHTS hits (AID 488865); format: functional;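 further: beta-arrestin recruitment to AT1 measured by enzyme fragment complementation luminescence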
T6 sequence (P30556 whole entry): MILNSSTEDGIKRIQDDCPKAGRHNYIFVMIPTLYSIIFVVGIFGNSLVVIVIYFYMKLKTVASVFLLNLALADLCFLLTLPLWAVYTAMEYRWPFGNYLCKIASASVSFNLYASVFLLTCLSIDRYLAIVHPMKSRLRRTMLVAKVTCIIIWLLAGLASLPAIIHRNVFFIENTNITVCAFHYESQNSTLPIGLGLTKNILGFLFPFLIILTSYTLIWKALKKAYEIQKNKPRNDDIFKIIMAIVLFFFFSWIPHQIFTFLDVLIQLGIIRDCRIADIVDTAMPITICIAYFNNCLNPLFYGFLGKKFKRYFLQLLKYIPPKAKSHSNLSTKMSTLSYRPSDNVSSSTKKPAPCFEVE

H9c2 = test: cells; format: functional, cell-based; details: Rattus norvegicus, H9c2, Myocardium;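 further: confirmatory concentration-response retest of ultra-high-throughput screening hits for modulation of myocardial damage; cell death induced by hydrogen peroxide oxidative stress; compound pretreatment for 60 min then peroxide exposure for 2 h; potency is for protecting the cells against peroxide damage rather than for killing them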
[10] = THP-1 cell cytotoxicity, dose response, cytotoxicity control for Vif-APOBEC3G degradation inhibitor project, THP-1 cells (AID 1117359); format: functional; details: Human immunodeficiency virus 1, THP-1
Large T antigen = Large T antigen (Simian virus 40, UniProt P03070); format: functional, Betapolyomavirus macacae;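 further: Confirmatory-stage PubChem screen for compounds that inhibit SV40 T antigen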
[11] = target: T7, Voltage-gated N-type calcium channel alpha-1B subunit/Amyloid beta A4 precursor protein-binding family A member 1 (Homo sapiens, UniProt Q00975+Q02410); format: protein assay
[12] = target: T7, Voltage-gated N-type calcium channel alpha-1B subunit/Amyloid beta A4 precursor protein-binding family A member 1; format: protein assay; remark: listed apart in the source
[13] = target: Eukaryotic translation initiation factor 4E (Mus musculus, UniProt P63073); test: eIF4E–eIF4G protein interaction inhibitors, dose response, biochemical, TR-FRET (AID 855); format: functional;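 further: potency for disrupting eIF4E binding to eIF4GI seen as loss of FRET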
[14] = THP-1 cell cytotoxicity, dose response, cytotoxicity control for non-replicating M. tuberculosis project (AID 489025); format: functional
cells = format: functional
Integrin alpha-L = Integrin alpha-L (Mus musculus, UniProt P24063); test: modulators of CD8 T cell-vesicle binding, dose response, powder samples, mouse 2C CD8+ cells (AID 504565); format: functional
[15] = target: T8, Short transient receptor potential channel 4 (Mus musculus, UniProt Q9QUQ5); test: mouse TRPC4 channel activators, dose response, cell-based, HEK293 TRPC4/mu-opioid, Fluo-4 calcium (AID 434937); format: functional
T8 sequence (Q9QUQ5 whole entry): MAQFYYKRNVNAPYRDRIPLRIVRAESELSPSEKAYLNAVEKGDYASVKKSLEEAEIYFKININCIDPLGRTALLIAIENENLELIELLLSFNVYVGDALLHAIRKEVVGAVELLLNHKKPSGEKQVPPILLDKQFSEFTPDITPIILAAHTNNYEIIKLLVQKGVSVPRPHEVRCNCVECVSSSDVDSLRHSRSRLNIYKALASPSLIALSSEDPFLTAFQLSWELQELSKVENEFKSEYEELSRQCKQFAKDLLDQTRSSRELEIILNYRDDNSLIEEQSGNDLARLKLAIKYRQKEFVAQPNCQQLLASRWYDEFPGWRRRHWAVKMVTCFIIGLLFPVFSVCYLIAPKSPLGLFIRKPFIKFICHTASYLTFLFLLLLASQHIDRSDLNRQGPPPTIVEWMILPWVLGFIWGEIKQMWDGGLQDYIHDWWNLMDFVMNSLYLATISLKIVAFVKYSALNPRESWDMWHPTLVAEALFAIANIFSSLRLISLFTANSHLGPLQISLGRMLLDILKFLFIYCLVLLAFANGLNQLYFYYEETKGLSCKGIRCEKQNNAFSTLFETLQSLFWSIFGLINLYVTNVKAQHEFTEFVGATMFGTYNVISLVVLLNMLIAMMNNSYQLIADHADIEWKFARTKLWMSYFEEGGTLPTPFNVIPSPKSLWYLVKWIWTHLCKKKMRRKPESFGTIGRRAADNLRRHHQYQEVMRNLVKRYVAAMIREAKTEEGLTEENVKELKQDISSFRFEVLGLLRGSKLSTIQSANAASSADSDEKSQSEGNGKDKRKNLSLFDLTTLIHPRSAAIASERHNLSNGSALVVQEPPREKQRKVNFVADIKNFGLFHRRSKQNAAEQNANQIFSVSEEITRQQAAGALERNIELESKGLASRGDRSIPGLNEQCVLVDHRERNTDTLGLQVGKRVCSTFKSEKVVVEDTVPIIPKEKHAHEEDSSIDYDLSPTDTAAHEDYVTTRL

Cytochrome P450 2C9 = Cytochrome P450 2C9 (Homo sapiens, UniProt P11712); details: Potency
Sequence of Cytochrome P450 2C9 (P11712 whole entry): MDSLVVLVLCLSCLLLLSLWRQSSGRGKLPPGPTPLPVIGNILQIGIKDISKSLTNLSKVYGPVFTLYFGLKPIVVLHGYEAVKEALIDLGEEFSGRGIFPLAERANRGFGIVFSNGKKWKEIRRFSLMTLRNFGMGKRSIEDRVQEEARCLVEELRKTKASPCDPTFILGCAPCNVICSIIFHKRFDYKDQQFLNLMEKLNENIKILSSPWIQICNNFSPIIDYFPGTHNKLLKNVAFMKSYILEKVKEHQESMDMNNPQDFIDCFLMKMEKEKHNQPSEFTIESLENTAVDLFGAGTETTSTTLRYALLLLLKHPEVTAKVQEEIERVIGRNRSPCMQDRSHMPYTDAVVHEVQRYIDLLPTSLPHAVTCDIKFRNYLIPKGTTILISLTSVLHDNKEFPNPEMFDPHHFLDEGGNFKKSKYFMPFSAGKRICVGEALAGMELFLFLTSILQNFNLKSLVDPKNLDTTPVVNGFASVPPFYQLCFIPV

T3 sequence (P41145 whole entry): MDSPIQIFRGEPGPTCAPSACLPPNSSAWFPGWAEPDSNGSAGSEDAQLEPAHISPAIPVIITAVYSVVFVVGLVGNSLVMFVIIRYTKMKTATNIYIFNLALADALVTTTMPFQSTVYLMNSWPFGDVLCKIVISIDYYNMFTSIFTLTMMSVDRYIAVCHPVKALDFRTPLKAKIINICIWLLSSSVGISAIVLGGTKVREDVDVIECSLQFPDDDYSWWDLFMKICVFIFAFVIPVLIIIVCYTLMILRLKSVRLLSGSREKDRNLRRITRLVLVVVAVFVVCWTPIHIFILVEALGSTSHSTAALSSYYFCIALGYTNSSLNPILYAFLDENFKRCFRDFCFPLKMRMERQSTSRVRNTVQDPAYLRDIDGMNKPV
T2 sequence (Q8VNN2 whole entry): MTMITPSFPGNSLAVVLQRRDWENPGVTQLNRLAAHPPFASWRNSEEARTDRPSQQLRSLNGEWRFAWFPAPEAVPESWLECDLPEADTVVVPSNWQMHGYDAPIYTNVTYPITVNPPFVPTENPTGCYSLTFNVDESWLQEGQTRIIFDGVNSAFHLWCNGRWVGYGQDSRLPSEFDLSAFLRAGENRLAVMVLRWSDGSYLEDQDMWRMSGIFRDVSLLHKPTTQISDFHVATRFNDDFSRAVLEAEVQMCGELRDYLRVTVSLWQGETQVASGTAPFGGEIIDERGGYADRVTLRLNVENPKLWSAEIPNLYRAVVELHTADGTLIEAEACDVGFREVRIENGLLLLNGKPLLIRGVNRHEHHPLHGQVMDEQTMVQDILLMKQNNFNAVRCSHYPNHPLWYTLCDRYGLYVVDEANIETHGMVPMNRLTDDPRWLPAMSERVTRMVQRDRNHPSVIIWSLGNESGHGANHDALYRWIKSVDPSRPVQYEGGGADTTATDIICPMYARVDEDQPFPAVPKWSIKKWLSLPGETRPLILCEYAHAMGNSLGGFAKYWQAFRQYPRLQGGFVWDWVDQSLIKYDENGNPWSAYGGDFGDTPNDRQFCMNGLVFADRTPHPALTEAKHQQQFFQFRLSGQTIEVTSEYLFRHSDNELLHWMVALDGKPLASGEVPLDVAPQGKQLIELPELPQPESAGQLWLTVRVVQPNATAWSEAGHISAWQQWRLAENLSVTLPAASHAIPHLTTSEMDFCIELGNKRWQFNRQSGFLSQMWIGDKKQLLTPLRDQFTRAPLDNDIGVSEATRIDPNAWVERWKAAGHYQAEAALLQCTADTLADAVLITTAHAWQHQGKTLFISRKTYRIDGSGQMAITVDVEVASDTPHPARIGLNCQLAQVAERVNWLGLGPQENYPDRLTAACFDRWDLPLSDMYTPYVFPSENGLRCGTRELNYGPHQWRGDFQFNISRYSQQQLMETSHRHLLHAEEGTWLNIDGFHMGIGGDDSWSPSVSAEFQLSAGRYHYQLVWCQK
T7 sequence (Q00975 whole entry): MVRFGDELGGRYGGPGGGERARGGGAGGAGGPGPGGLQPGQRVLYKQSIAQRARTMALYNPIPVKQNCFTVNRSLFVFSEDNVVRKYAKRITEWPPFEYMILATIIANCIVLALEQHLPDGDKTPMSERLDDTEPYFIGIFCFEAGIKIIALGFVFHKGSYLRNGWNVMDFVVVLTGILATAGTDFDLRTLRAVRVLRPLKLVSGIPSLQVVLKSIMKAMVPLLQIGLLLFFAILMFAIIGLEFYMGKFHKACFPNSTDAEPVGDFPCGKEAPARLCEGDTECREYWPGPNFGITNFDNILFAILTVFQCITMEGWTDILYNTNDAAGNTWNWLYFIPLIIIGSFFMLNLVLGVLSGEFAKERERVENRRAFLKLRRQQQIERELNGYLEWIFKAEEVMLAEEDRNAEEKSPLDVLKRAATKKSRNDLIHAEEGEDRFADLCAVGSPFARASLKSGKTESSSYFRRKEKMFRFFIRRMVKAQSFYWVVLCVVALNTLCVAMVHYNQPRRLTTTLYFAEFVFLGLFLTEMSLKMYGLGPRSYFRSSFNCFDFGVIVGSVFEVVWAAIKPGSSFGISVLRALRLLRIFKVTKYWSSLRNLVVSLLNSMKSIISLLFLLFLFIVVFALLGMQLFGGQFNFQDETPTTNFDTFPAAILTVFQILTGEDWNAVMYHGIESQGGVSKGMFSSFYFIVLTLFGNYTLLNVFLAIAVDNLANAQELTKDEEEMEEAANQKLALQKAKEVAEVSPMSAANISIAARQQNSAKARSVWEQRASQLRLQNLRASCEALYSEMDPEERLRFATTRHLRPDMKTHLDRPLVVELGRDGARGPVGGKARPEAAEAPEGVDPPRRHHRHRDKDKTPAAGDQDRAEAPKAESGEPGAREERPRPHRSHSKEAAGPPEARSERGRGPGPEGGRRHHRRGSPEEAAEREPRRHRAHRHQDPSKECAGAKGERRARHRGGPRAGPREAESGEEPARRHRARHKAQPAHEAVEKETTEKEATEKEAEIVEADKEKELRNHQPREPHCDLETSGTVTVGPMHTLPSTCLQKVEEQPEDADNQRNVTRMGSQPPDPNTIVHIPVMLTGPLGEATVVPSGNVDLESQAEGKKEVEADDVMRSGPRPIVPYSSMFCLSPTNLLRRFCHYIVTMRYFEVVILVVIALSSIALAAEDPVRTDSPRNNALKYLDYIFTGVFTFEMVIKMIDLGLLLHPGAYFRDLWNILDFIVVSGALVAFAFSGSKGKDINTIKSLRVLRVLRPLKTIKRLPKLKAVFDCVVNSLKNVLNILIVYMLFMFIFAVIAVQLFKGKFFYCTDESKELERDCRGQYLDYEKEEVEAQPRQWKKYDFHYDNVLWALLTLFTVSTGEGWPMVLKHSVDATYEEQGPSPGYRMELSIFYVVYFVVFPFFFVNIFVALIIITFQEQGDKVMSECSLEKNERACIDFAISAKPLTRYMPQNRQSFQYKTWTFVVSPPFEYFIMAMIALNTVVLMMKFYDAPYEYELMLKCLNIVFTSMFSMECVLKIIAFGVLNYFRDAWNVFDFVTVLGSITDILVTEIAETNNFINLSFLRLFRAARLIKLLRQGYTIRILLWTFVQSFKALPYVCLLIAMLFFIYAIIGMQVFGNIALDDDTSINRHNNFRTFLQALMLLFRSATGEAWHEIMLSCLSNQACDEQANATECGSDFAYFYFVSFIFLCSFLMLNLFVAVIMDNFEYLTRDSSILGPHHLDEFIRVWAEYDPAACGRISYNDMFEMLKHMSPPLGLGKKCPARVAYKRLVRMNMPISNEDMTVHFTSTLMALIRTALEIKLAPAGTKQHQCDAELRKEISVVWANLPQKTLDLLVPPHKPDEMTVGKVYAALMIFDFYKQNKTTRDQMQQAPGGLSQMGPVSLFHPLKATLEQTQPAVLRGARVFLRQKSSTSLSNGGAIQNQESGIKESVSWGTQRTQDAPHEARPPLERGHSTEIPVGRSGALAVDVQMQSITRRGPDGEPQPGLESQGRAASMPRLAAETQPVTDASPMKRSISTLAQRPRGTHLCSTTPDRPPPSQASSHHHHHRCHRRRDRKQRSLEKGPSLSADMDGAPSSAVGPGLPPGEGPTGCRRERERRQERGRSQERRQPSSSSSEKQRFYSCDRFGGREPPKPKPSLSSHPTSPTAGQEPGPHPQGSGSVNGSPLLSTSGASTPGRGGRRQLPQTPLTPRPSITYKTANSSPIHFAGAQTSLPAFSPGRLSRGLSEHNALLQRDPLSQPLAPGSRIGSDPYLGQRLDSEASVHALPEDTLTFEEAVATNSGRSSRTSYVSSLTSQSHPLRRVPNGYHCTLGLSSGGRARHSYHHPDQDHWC
T7 sequence (Q02410 whole entry): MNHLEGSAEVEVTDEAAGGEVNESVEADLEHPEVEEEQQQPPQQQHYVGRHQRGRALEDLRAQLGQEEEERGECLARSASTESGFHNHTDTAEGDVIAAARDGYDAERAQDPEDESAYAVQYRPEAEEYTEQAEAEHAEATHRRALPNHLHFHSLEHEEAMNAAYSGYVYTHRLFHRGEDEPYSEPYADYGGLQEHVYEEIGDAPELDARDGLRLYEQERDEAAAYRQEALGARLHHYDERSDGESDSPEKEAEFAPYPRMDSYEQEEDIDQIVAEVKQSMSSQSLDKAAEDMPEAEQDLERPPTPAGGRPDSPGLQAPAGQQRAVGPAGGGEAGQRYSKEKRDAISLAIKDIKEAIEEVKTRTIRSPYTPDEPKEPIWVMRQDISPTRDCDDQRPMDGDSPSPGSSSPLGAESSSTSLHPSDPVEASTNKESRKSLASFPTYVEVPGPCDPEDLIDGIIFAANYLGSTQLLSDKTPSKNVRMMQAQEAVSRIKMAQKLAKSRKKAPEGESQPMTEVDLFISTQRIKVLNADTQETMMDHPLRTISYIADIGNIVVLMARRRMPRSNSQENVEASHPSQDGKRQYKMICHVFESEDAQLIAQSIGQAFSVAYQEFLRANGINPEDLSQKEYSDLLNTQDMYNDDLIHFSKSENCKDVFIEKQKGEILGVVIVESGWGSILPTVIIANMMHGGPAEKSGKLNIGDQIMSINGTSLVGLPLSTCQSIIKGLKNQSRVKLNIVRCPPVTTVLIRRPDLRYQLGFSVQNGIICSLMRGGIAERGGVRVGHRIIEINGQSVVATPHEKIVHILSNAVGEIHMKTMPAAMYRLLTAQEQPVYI

In the case of `COc1ccc(NC(=S)NC(NC(=O)c2ccccc2Cl)C(Cl)(Cl)Cl)c([N+](=O)[O-])c1` (configuration not stated), the IC50 [1] was > 66 µM (inactive), the IC50 (Beta-galactosidase [2]) was > 66.6 µM (inactive) and the IC50 [3] was 7.41 µM (active). The IC50 [4] was > 66 µM (inactive), the pIC50 [5] was 5.29 and the IC50 [6] was > 66.6 µM (inactive). For the same molecule, the EC50 (Beta-galactosidase [7]) was > 31.5 µM (inactive).
For `Nc1c(C(=O)NCc2ccccc2)sc2nc(N3CCOCC3)c3c(c12)CCCC3`, the AC50 (Trypsin) was 14.8 µM (active).
For `COc1cccc2sc3ccc(NCCC4CCCN4C)cc3c(=O)c12` (configuration not stated), the AC50 [8] was 22.8 µM (active) and the EC50 [9] was > 100 µM (inactive).
In the case of `CCOc1ccc2nc(O)c(CN(CCO)C(c3nnnn3C3CCCCC3)C(C)C)cc2c1` (configuration not stated), the IC50 (H9c2) was > 79 µM (inactive) and the EC50 [9] was > 100 µM (inactive).
For `O=C(CSc1nc2ccccc2n1CCc1ccccc1)c1ccc(O)c(O)c1`, the CC50 [10] was > 40 µM (active), the IC50 (Large T antigen) was 35.9 µM (active) and the IC50 [11] was > 50 µM (inactive). For the same molecule, the IC50 [12] was 9.4 µM (active) and the IC50 [13] was 23.7 µM (active).
For `O=C(CCS(=O)(=O)c1ccccc1)Nc1nnc(-c2ccco2)o1`, the CC50 [14] was > 40 µM (active) and the IC50 (cells) was 48.6 µM (active).
For `O=C(NCC1CCCCC1)c1ccc(Cl)c(S(=O)(=O)N2CCOCC2)c1`, the EC50 (Integrin alpha-L) was 20.1 µM (active).
With `Cc1ccc(C)c(CN2CCC(CNC(=O)CCc3nnc4ccc(N5CCCCC5)nn34)CC2)c1` the EC50 [15] was 299 nM (active).
In the case of `COc1ccc([C@@H]2OC[C@]3(COC(C)=O)[C@H](C)C=C(C)[C@@H]2[C@H]3C)cc1`, the AC50 (Cytochrome P450 2C9) was 20 µM (inconclusive).

From ChEMBL document CHEMBL1201862, “PubChem BioAssay data set” (2004)
